Among the data in PMC4516916, “Development of Plate Reader and On-Line Microfluidic Screening to Identify Ligands of the 5-Hydroxytryptamine Binding Protein in Venoms” (Toxins, 2015) are Ki, fluorescence enhancement factor and degradation in solution values, retold here.

By Ki is commonly meant a dissociation constant, usually derived from enzyme kinetics or from competition with a known ligand.

Data set [1] addresses T1, A1B2D1R 5HTBP mutant (Aplysia californica, UniProt Q8WSF8). Nature of the data set: Fluorescence enhancement microplate reader assay (DAHBA tracer). The class given is binding. On the procedure:
Next, specific and non-specific binding was determined by measuring a tracer saturation curve with and without a displacing ligand. In this experiment, the binding protein concentration was 50 nM while 100 µM granisetron was used as displacing ligand for measurement of the non-specific binding curve. […] The non-specific binding, the total binding curve and the resulting specific binding curve is shown (Figure 2C).
Fourteen 5-HT3R ligands, also binding to the 5HTBP [10], were selected for this experiment. The measured Ki values for both the fluorescence enhancement plate reader assay as well as those measured with the radioligand binding assay are listed (Supplementary Information Table S1).
The buffer used for development of the 5HTBP fluorescence enhancement assay consisted of 1 mM KH2PO4, 3 mM Na2HPO4, […], 20 mM trizma base/HCl at pH 7.5 with addition of 400 μg/mL ELISA BR [21]. The fluorescence enhancement was measured with a Victor3 Microplate reader from Perkin-Elmer. The excitation and emission wavelengths were set to 485 and 520 nm, respectively. Black-bottomed 96-well microplates were purchased from Greiner Bio-One (Alphen aan den Rijn, The Netherlands). The final assay volume was 100 µL per well. The 5HTBP was first mixed with the ligands, and then with the tracer ligand. The assay mixture was incubated for 5 min before the measurement. The pharmacological validation was performed by measurement of IC50 curves of twelve 5-HT3R ligands and comparing the results obtained with the results obtained from a radioligand binding assay (see below). The z’ factors for the determination of assay quality were calculated according to Zhang.

For data set [2], the target named is T1, A1B2D1R 5HTBP mutant. The data set can be described thus: Radioligand binding assay with [3H]-granisetron (SPA). On the procedure: The competitive radioligand-binding assay was performed as described by Kesters et al. 2013 [10]. His-tagged A1B2D1R 5HTBP was diluted in buffer (10 mM HEPES/0.05% Tween) to obtain 50 ng binding protein per well. […] The concentration of the radioligand [3H]-granisetron (Perkin-Elmer, Life Science, Groningen, The Netherlands, specific activity ~85 Ci/mmol) was 1.99 nM. After addition of PVT Copper His-Tag SPA beads (final concentration 2 mg/mL), the final well volume was 100 µL. The plates (white Optiplates, Perkin-Elmer Life Science, Groningen, The Netherlands) were incubated at room temperature under continuous shaking while protected from light for 1.5 h. The SPA beads were then allowed to settle for 3 h in the absence of light before counting in a Wallac 1450 MicroBeta (Perkin-Elmer Life Science, Groningen, The Netherlands). All radioligand binding data were fit by a non-linear, least squares curve analysis procedure using Graphpad Prism (version 5, GraphPad Software).

A further data set relates to A1B2D1R 5HTBP. The data set can be described thus: Fluorescence enhancement of anabaseine derivatives with 5HTBP (cuvette fluorometer). Type of data set: binding, Aplysia californica. To be noted: fluorescence in presence of 5HTBP divided by fluorescence in absence of 5HTBP; A1B2D1R variant; excitation 488 nm. On the procedure:
(§1) We first evaluated three potentially suitable tracer ligands. […] Fluorescence enhancement factors are defined as fluorescence in presence of 5HTBP divided by fluorescence in absence of 5HTBP. […] DAHBA was therefore selected as the most suitable tracer ligand.
(§2) The fluorescence enhancement properties of three anabaseine derivatives (Supplementary Information Figure S3) bound to the orthosteric binding pocket of two different 5HTBP variants were measured using 1 cm wide glass cuvettes in a Perkin-Elmer LS50B fluorometer (Groningen, The Netherlands). The excitation spectra, λmax (nm), and ε (L·mol^−^1·cm^−^1) values of the anabaseine derivatives are described by Kool et al.. The emission spectra from 500–595 nm were recorded with 0.5 nm intervals with a fixed 488 nm excitation.

The test system of another data set is A1B2D1W 5HTBP. The description is as above. The class given is binding, Aplysia californica. To be noted: fluorescence in presence of 5HTBP divided by fluorescence in absence of 5HTBP; A1B2D1W variant; excitation 488 nm. The protocol:
as §1, §2

Data set [3] is described as follows: Stability of tracer ligand in solution (MS analysis). Conditions: deduced by MS analysis. The class given is physicochemical.
Text: as §1

Where [4] appears, read: read-out: Ki fluorescence enhancement (A1B2D1R 5HTBP mutant), plate reader assay.
Where [5] appears, read: read-out: Ki RLB (A1B2D1R 5HTBP mutant); [3H]-granisetron 1.99 nM.
The mark [6] stands for this setting: plate reader assay, read-out: Ki fluorescence enhancement (A1B2D1R 5HTBP mutant).
[7] abbreviates: [3H]-granisetron 1.99 nM; read-out: Ki RLB (A1B2D1R 5HTBP mutant).

Structures can show the parent of a compound that is named as a salt.

T1 sequence (Q8WSF8 entry or part of it, change not shown): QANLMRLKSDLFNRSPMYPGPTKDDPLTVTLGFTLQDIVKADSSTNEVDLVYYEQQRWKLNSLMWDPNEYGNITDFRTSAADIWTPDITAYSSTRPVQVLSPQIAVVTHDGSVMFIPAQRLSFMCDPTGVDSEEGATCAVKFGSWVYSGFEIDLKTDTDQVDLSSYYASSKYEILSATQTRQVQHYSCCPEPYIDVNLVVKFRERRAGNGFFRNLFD

In the case of `NCCc1c[nH]c2ccc(F)cc12` [5-fluorotryptamine HCL], the inhibition constant (Ki) at A1B2D1R 5HTBP mutant [1] (setting [4]) was found to be 110 ± 14 µM; on A1B2D1R 5HTBP mutant [2] (setting [5]), 101 ± 50.2 µM.

For `C=CCN1CCc2nc(N)sc2CC1` [B-HT920], the Ki at A1B2D1R 5HTBP mutant [1] (setting [6]) was found to be 3.85 ± 0.76 µM; at A1B2D1R 5HTBP mutant [2] (setting [7]), 0.93 ± 0.24 µM.

With `CCN(CC)c1ccc(/C=C2\CCCN=C2c2cccnc2)c(O)c1` [DAHBA, (E)-3-(3-(4-diethylamino-2-hydroxybenzylidene)-3,4,5,6-tetrahydropyridin-2-yl)pyridine], in the data set with A1B2D1R 5HTBP, the fluorescence enhancement factor is 4.7.

On to `Cn1cc(C(=O)C(=O)NC2CN3CCC2CC3)c2ccccc21` (stereo not drawn) [RS56812], for which the inhibitory constant (Ki) at A1B2D1R 5HTBP mutant [1] (setting [6]) was 3.57 ± 0.91 µM; on A1B2D1R 5HTBP mutant [2] (setting [7]) it was 1.6 ± 0.34 µM.

As for `NC1CCN(c2cccc(Cl)n2)CC1` [SR57227], the Ki on A1B2D1R 5HTBP mutant [1] (setting [6]) is 85 ± 7.62 µM; at A1B2D1R 5HTBP mutant [2] (setting [7]), 39.7 ± 15 µM.

For `CN1CCN(c2nc3ccccc3nc2Cl)CC1` [VUF10166], the figures for the Ki at A1B2D1R 5HTBP mutant [1] (setting [6]) and at A1B2D1R 5HTBP mutant [2] (setting [7]) were 11.5 ± 3.58 µM and 2.39 ± 0.58 µM, respectively.

As for `CN(C)c1ccc(/C=C2\CCCN=C2c2cccnc2)cc1` [VUF10907, (E)-3-(3-(4-Dimethylaminobenzylidene)-3,4,5,6-tetrahydropyridin-2-yl)pyridine], the fluorescence enhancement factor worked out at 2.5 with A1B2D1W 5HTBP and 3.8 with A1B2D1R 5HTBP.

`CN1CCc2cc(/C=C3\CCCN=C3c3cccnc3)ccc21` [VUF11234, (E)-1-methyl-5-((2-(pyridin-3-yl)-5,6-dihydropyridin-3(4H)-ylidene)methyl)indoline]: the degradation in solution result in data set [3] is reported as “notable degradation in solution”. For the same compound, the fluorescence enhancement factor with A1B2D1W 5HTBP is reported as 3.7; in the data set on A1B2D1R 5HTBP, 6.5.

`CN1C2CCCC1CC(NC(=O)c1nn(C)c3ccccc13)C2` (stereo not drawn) [granisetron, Granisetron]: the Ki at A1B2D1R 5HTBP mutant [1] (setting [4]) stood at 0.24 ± 0.14 µM; at A1B2D1R 5HTBP mutant [2] (setting [5]), 0.05 ± 0.01 µM.

With `CN1CCN2c3ncccc3Cc3ccccc3C2C1` (stereo not drawn) [mirtazapine], the inhibitory constant (Ki) came out at 12.8 ± 3.99 µM at A1B2D1R 5HTBP mutant [1] (setting [4]) and 9.29 ± 1.87 µM at A1B2D1R 5HTBP mutant [2] (setting [5]).

Regarding `O=C1c2cccc3c2[C@H](CCC3)CN1[C@@H]1CN2CCC1CC2` [palonosetron], the Ki is 2.2 ± 0.63 µM at A1B2D1R 5HTBP mutant [1] (setting [4]) and 0.51 ± 0.11 µM at A1B2D1R 5HTBP mutant [2] (setting [5]).

As for `c1ccc2nc(N3CCNCC3)ccc2c1` [quipazine], the inhibition constant Ki on A1B2D1R 5HTBP mutant [1] (setting [4]) worked out at 73 ± 32.2 µM; at A1B2D1R 5HTBP mutant [2] (setting [5]), 53.8 ± 13.7 µM.

Regarding `CN1[C@@H]2CC[C@H]1C[C@@H](OC(=O)c1c[nH]c3ccccc13)C2` [tropisetron], the Ki on A1B2D1R 5HTBP mutant [1] (setting [4]) was found to be 0.04 µM; on A1B2D1R 5HTBP mutant [2] (setting [5]), 0.01 µM.

With `COc1cc(N)c(Cl)cc1C(=O)NC1CN2CCC1CC2` (stereo not drawn) [zacopride], the values for the inhibition constant (Ki) on A1B2D1R 5HTBP mutant [1] (setting [4]) and at A1B2D1R 5HTBP mutant [2] (setting [5]) were 4.05 ± 1.14 µM and 1.62 ± 0.57 µM, respectively.

In the case of RS 16566, the Ki was found to be 3 ± 0.02 µM on A1B2D1R 5HTBP mutant [1] (setting [6]) and 0.38 ± 0.09 µM on A1B2D1R 5HTBP mutant [2] (setting [7]).
